“Also recorded” adds a separate entry of the source.
Experiments:
4T1 breast cancer = assay: Murine lung metastasis models (4T1 breast cancer); type: in vivo, mouse
Source text: Recent advances in cancer immunotherapy have improved patient survival. However, only a minority patients with pulmonary metastatic disease responds to treatment with checkpoint inhibitors. As an alternate approach, we have tested the ability of systemically administered 1V270, a toll-like receptor 7 (TLR7) agonist conjugated to a phospholipid, to inhibit lung metastases in two variant murine 4T1 breast cancer models, as well as in B16 melanoma, and Lewis lung c models.

mBMDCs [1] = assay: IL-12 induction in mBMDCs (ELISA); type: cell-based, mouse; details: 10 μM / dose response
Protocol: (§1) All these analogs were evaluated for induction of IL-12 cytokine at 10 μM, followed by dose response IL-12 induction for selected analogs. These analogs were also evaluated for exosome release by quantitating EV release in the supernatant post 48 hours incubation with CD63-Tluc-CD9-EmGFP THP-1 reporter cells.
mBMDCs (10^5 cells/200 μL/well) were plated in wells of 96-well plates and treated with test compound (5 μM or 10 μM) or vehicle (0.5% DMSO) overnight.

[2] = test system: CD63-Tluc-CD9-EmGFP THP-1 reporter cells; assay: CD63 Tluc-CD9 EmGFP THP-1 reporter cell assay (EV/exosome release); type: cell-based, human; details: for exosome (EV) release in CD63 reporter THP-1 cells: 48 hours incubation; for luciferase activities in the culture supernatant of CD63 Tluc reporter cells: 634 analogs 10 μM, 48 hours
Protocol: as §1
In the HTS using CD63-Tluc-CD9EmGFP reporter cells (CD63 HTS), PMA (10 ng/ml) was used as a positive control (Shpigelman et al., 2021) and 0.5% DMSO was used as negative control (vehicle, Veh). Briefly, the harvested cells were resuspended in assay media containing 10% exosome-depleted […] (#A2720801, Thermo Fisher Scientific) and plated at 2×10^5 cells/mL (50 μL/well of 384-well plates) (#3674, Corning). Test compounds were added at a final concentration of 10 μM to cells and incubated for 48 hours at 37° C. Subsequently, the plate was centrifuged, supernatant (25 μL) was transferred, and chemiluminescent was measured as recombinant luciferase activity (RLU) after 10 minutes incubation with TurboLuc assay reagent (TurboLuc™ One-Step Glow Assay kit, Thermo Fisher Scientific). The response that measures activation and subsequent release of EVs was calculated using the following formula; % response=100×(compound RLU−average Veh RLU)/(average PMA RLU−average Veh RLU). The viability of cells was assessed using PrestoBlue reagent (Thermo Fisher Scientific). Briefly, PrestoBlue reagent (2.5 μl) was added to the remaining cells and incubated for 30 minutes at room temperature, followed by fluorescence readout at (Ex 560 nm/Em 590 nm) which was normalized to fluorescence data of the Veh wells within the plate to obtain “% viability” calculated as 100×(compound fluorescence/average Veh fluorescence).
CD63 Tluc-CD9 EmGFP THP-1 reporter cell assay. CD63 Tluc CD9 EmGFP THP-1 reporter cell (designated as CD63 Tluc reporter cells) were incubated with 10 μM test compounds, ION (1 μM), or 0.5% DMSO (negative control) in the RPMI 1640 supplemented with exosome-depleted FBS at 5×10^4 cells in 200 μL/well for a 96-well plate for 48 hours at 37° C. Subsequently, the plate was centrifuged, the supernatant was transferred, and chemiluminescence was measured by TurboLuc™ Luciferase One-Step Glow Assay Kit. The response that measures activation and subsequent release of EVs was calculated using the following formula; % response=100×(compound RLU−average Veh RLU)/(average PMA RLU−average Veh RLU).

mBMDCs [3] = assay: Intracellular Ca2+ influx (Fura-2/Fura-8) in mBMDCs; type: cell-based, mouse; details: 10 μM, vs Veh 0.5% DMSO / #634
mBMDCs [4] = assay: Costimulatory molecule expression on mBMDCs (flow cytometry); type: cell-based, mouse; details: 634 10 μM, ION 1 μM, MPLA 1 μg/mL overnight, vs Veh
Protocol: FIGS. 26A-26D. Flow cytometric analysis for costimulatory molecules on mBMDCs. For costimulatory molecules on mBMDCs, mBMDCs (10^6 cells/mL) were incubated with 634 (10 μM), ION (1 μM), and MPLA (1 μg/mL) for 20-24 hours. 0.5% DMSO was used as a vehicle. After removing the supernatant, cells were washed with the stain buffer and incubated with anti-mouse CD16/32 antibody for blocking FcR. Cells were stained with an antibody cocktail with anti-CD86 (A), anti-CD80 (B), anti-MHC class II (C), and anti-CD40 (D) antibodies for 30 minutes at 4° C. Cells were then washed and stained with DAPI (4′,6-diamino-2phenylindole) for 10 minutes at room temperature to exclude dead cells (DAPI^high) from the analysis. Data were acquired using MACSQuant Analyzer 10 (Miltenyi Biotec, Germany) and analyzed with FlowJo (version 10.8.1).
mBMDCs (10^5 cells/200 μL/well) were treated with a test compound (10 μM) or Veh (0.5% DMSO) overnight and then the costimulatory molecule expression on mBMDCs was evaluated using flow cytometry. The cells were stained with antibodies for CD11c, CD80, CD83, CD86, CD40, and MHC class II. Dead cells (DAPI high) were excluded from the analysis. Percent positive population of CD80, CD83, CD86, CD40, or MHC class II in the gated CD11c population were analyzed.
Costimulatory Molecule Expression Analysis. mBMDCs (10^6 cells/mL) were incubated with 10 μM compound, 1 μM lonomycin and 1 μg/mL MPLA for 20 to 24 hours. 0.5% DMSO was used as vehicle. Cells were incubated with anti-mouse CD16/32 antibody for blocking FcR and stained with anti-CD11c, anti-CD40, […], anti-CD83, […], or anti-MHC class II antibodies for 30 minutes at 4° C. Cells were stained with 4′,6-diamino-2-phenylindole (DAPI) for 10 minutes at RT. Data were acquired using MACSQuant Analyzer 10 (Miltenyi Biotec, Germany) and analyzed with FlowJo (version 10.8.1, Becton Dickinson, Ashland, OR)).

## CCCCCCCC/C=C\CCCCCCCC(=O)OCC(COP(=O)(O)OCCNC(=O)c1ccc(Cn2c(=O)[nH]c3c(N)nc(OCCOC)nc32)cc1)OC(=O)CCCCCCC/C=C\CCCCCCCC (stereo not drawn) [1V270]
4T1 breast cancer; 4T1 breast cancer models, systemic administration
  lung metastases / tumor cell colonization in the lungs: inhibited lung metastases; also recorded: inhibited colonization by tumor cells in the lungs
4T1 breast cancer; compared to the unconjugated agonist
  toxic effects: minimal toxic effects
4T1 breast cancer; intranasal administration
  lung metastasis after intranasal administration: suppressed lung metastasis

## Cc1ccccc1-c1cncc(-c2nnc(-c3cccc4ccccc34)o2)c1 [2C183]
mBMDCs [1]
  IL-12 induction: induced IL-12 in BMDCs
[2]
  exosome (EV) release in CD63 reporter THP-1 cells: enhanced exosome release in CD63 reporter THP-1 cells

## Cc1cccc(-c2cncc(-c3nnc(-c4cccc5ccccc45)o3)c2)c1 [2C185]
mBMDCs [1]
  IL-12 induction: enhance exosome release and IL-12 induction; also recorded: induced IL-12 in BMDCs
[2]
  exosome (EV) release in CD63 reporter THP-1 cells: enhance exosome release; also recorded: enhanced exosome release in CD63 reporter THP-1 cells

## CCNC(=O)c1c(NS(=O)(=O)c2cccc3c2N=S=N3)sc(C)c1C [2E241, 2-(benzo[c][1,2,5]thiadiazole-4-sulfonamido)-N-ethyl-4,5-dimethylthiophene-3-carboxamide]
mBMDCs [3]
  intracellular Ca^2+ influx by 634 and its SAR analogs (Fura-2): loss of potency; also recorded: did not induce Ca^2+ influx in mBMDCs; also recorded: negative
[2]
  luciferase activities in the culture supernatant of CD63 Tluc reporter cells: did neither increase luciferase activities

## CCOC(=O)c1c(N(C)S(=O)(=O)c2cccc3c2N=S=N3)sc(C)c1C [2F186, Ethyl 4,5-dimethyl-2-(N-methylbenzo[c][1,2,5]thiadiazole-4-sulfonamido)thiophene-3-carboxylate]
mBMDCs [3]
  intracellular Ca^2+ influx by 634 and its SAR analogs (Fura-2): did not induce Ca^2+ influx in mBMDCs; also recorded: negative
[2]
  luciferase activities in the culture supernatant of CD63 Tluc reporter cells: did neither increase luciferase activities

## Cc1sc(NS(=O)(=O)c2cccc3nsnc23)c(C(=O)O)c1C [2H013, 2-(benzo[c][1,2,5]thiadiazole-4-sulfonamido)-4,5-dimethylthiophene-3-carboxylic acid]
mBMDCs [3]
  intracellular Ca^2+ influx by 634 and its SAR analogs (Fura-2): did not induce Ca^2+ influx in mBMDCs; also recorded: negative
[2]
  luciferase activities in the culture supernatant of CD63 Tluc reporter cells: did neither increase luciferase activities

## c1ccc(-c2cn(-c3cncc(-c4cccs4)c3)nn2)cc1 [2H050]
mBMDCs [1]
  IL-12 induction: significantly enhanced cytokine IL-12 induction

## COc1ccc(-c2nnc(-c3cccnc3)o2)cc1OC [#1310]
mBMDCs [1]
  IL-12 induction: as potent as #645

## Clc1ccc(-c2nnc(-c3cccnc3)o2)cc1 [#1311]
mBMDCs [1]
  IL-12 induction: as potent as #645

## C[C@H](CCC(=O)O)C[C@H](C)C[C@H](C)C(=O)/C=C(\O)[C@H](C)C[C@H](C)C/C=C/[C@@H](C)[C@@H](O)[C@@H](C)[C@@H](O)C[C@@H]1CC[C@@](C)([C@H]2CC[C@@](C)([C@@H](C)O)O2)O1 [ION, ionomycin, reference compound]
mBMDCs [4]
  CD80 expression on mBMDCs: increased CD86 and CD80 expression on mBMDCs
  CD86 expression on mBMDCs: increased CD86 and CD80 expression on mBMDCs

From US20250281465A1, “MOLECULES THAT ENHANCE EXTRACELLULAR VESICLE RELEASE” (priority 2022, published 2025)
